Assay results taken from US9452997B2, “Piperidine and piperazine derivatives as autotaxin inhibitors” (Merck Patent GmbH, priority 2009, dated 2016).

Target: T1, Recombinant autotaxin (Homo sapiens, UniProt Q13822)
T1 construct: made in house; host or cells: Hi5 insect cells (baculovirus)
Assay: Autotaxin assay (Amplex Red, LPC substrate)
Type: biochemical
Settings: recombinant autotaxin, LPC substrate, Amplex Red detection; values given as upper bounds
Outline: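 Recombinant autotaxin (Hi5 baculovirus, 16 ng) pre-incubated with compound 30 min at 22° C, then reacted with 75 μM egg LPC for 90 min at 37° C. Choline released is coupled to H2O2 and Amplex Red fluorescence (ex 485/em 612 nm). IC50 from ten 1:3 dilutions from 30 μM, duplicates, normalised to 500 μM C14 LPA.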

SMILES	IC50
Cc1nc(-c2ccc(Cl)cc2)sc1COC(=O)N1CCN(C2CCN(C(=O)c3ccc4[nH]nnc4c3)CC2)CC1 [Compound 174, 4-[1-(1H-Benzotriazole-5-carbonyl)-piperidin-4-yl]-piperazine-1-carboxylic acid 2-(4-chloro-phenyl)-4-methyl-thiazol-5-ylmethyl ester]	< 10 µM
O=C(OCC1CN(c2ccc(Cl)cc2)C(=O)O1)N1CCN(C2CCN(C(=O)c3ccc4[nH]nnc4c3)CC2)CC1 (stereo not shown) [Compound 175, 4-[1-(1H-Benzotriazole-5-carbonyl)-piperidin-4-yl]-piperazine-1-carboxylic acid 3-(4-chloro-phenyl)-2-oxo-oxazolidin-5-ylmethyl ester]	< 10 µM
Cc1ccc(C(C)CC(=O)N2CCN(C3CCN(C(=O)c4ccc5[nH]nnc5c4)CC3)CC2)cc1C (stereo not shown) [Compound 176, 1-{4-[1-(1H-Benzotriazole-5-carbonyl)-piperidin-4-yl]-piperazin-1-yl}-3-(3,4-dimethyl-phenyl)-butan-1-one]	< 30 µM
CC(CC(=O)N1CCN(C2CCN(C(=O)c3ccc4[nH]nnc4c3)CC2)CC1)c1ccc(C(F)(F)F)cc1 (stereo not shown) [Compound 177, 1-{4-[1-(1H-Benzotriazole-5-carbonyl)-piperidin-4-yl]-piperazin-1-yl}-3-(4-trifluoromethyl-phenyl)-butan-1-one]	< 10 µM
O=C(OC1(c2cc(C(F)(F)F)cc(C(F)(F)F)c2)CC1)N1CCN(C2CCN(C(=O)c3ccc4[nH]nnc4c3)CC2)CC1 [Compound 178, 4-[1-(1H-Benzotriazole-5-carbonyl)-piperidin-4-yl]-piperazine-1-carboxylic acid 1-(3,5-bis-trifluoromethyl-phenyl)-cyclopropyl ester]	< 1 µM
O=C(c1ccc2[nH]nnc2c1)N1CCC(N2CCN(C(=O)C3CC3c3ccc(Cl)cc3)CC2)CC1 (stereo not shown) [Compound 179, (1H-Benzoriazol-5-yl)-(4-{4-[2-(4-chloro-phenyl)-cyclopropanecarbonyl]-piperazin-1-yl}-piperidin-1-yl)-methanone]	< 10 µM
O=C(CN1CCC(N2CCN(C(=O)c3ccc4[nH]nnc4c3)CC2)CC1)Nc1cc(C(F)(F)F)cc(C(F)(F)F)c1 [Compound 180, 2-{4-[4-(1H-Benzotriazole-5-carbonyl)-piperazin-1-yl]-piperidin-1-yl}-N-(3,5-bis-trifluoromethyl-phenyl)-acetamide]	< 10 µM
COc1ccc(Cl)cc1NC(=O)CN1CCC(N2CCN(C(=O)c3ccc4[nH]nnc4c3)CC2)CC1 [Compound 181, 2-{4-[4-(1H-Benzotriazole-5-carbonyl)-piperazin-1-yl]-piperidin-1-yl}-N-(5-chloro-2-methoxy-phenyl)-acetamide]	< 10 µM
CN(C1CCN(C(=O)OCc2ccc(C(F)(F)F)cc2)CC1)C1CCN(C(=O)c2ccc3[nH]nnc3c2)C1 (stereo not shown) [Compound 182, 4-{[1-(1H-Benzotriazole-5-carbonyl)-pyrrolidin-3-yl]-methyl-amino}-piperidine-1-carboxylic acid 4-trifluoromethyl-benzyl ester]	< 10 µM
O=C(OCc1cc(Cl)cc(C(F)(F)F)c1)N1CCN(C2CCN(S(=O)(=O)c3ccc4[nH]c(=O)oc4c3)CC2)CC1 [Compound 183, 4-[1-(2-Oxo-2,3-dihydro-benzooxazole-6-sulfonyl)-piperidin-4-yl]-piperazine-1-carboxylic acid 3-chloro-5-trifluoromethyl-benzyl ester]	< 10 µM
O=C(OCc1cc(C(F)(F)F)cc(C(F)(F)F)c1)N1CCN(C2CCN(C(=O)c3ccc4[nH]nnc4c3)CC2)C(=O)C1 [Compound 184, 4-[1-(1H-Benzotriazole-5-carbonyl)-piperidin-4-yl]-3-oxo-piperazine-1-carboxylic acid 3,5-bis-trifluoromethyl-benzyl ester]	< 1 µM
O=C(NC1CCC(N2CCN(C(=O)OCc3ccccc3)CC2)CC1)c1ccc2[nH]nnc2c1 (stereo not shown) [Compound 185, 4-{4-[(1H-Benzotriazole-5-carbonyl)-amino]-cyclohexyl}-piperazine-1-carboxylic acid benzyl ester]	< 30 µM
O=C(NC1CCC(N2CCN(C(=O)OCc3cc(C(F)(F)F)cc(C(F)(F)F)c3)CC2)CC1)c1ccc2[nH]nnc2c1 (stereo not shown) [Compound 186, 4-{4-[(1H-Benzotriazole-5-carbonyl)-amino]-cyclohexyl}-piperazine-1-carboxylic acid 3,5-bis-trifluoromethyl-benzyl ester]	< 1 µM
O=C(NC1CCC(N2CCN(C(=O)OCc3cc(Cl)cc(C(F)(F)F)c3)CC2)CC1)c1ccc2[nH]nnc2c1 (stereo not shown) [Compound 187, 4-{4-[(1H-Benzotriazole-5-carbonyl)-amino]-cyclohexyl}-piperazine-1-carboxylic acid 3-chloro-5-trifluoromethyl-benzyl ester]	< 1 µM
O=C(NC1CCC(N2CCN(C(=O)OCc3ccc(SC(F)(F)F)cc3)CC2)CC1)c1ccc2[nH]nnc2c1 (stereo not shown) [Compound 188, 4-{4-[(1H-Benzotriazole-5-carbonyl)-amino]-cyclohexyl}-piperazine-1-carboxylic acid 4-trifluoromethylsulfanyl-benzyl ester]	< 10 µM
O=C(NC1CCC(N2CCN(C(=O)OCc3ccc(C(F)(F)F)c(F)c3)CC2)CC1)c1ccc2[nH]nnc2c1 (stereo not shown) [Compound 189, 4-{4-[(1H-Benzotriazole-5-carbonyl)-amino]-cyclohexyl}-piperazine-1-carboxylic acid 3-fluoro-4-trifluoromethyl-benzyl ester]	< 10 µM
